Consider one compound from patent publication US20110152271A1, “Compositions and methods for ophthalmic delivery of nasal decongestants” (priority 2009, published 2011).

For experiment [1] the following is noted: 0.025% brimonidine in one eye. Here is the method:
Eight (8) human subjects were administered 0.025% brimonidine. The subjects were administered with the drug in one eye and then asked to assess themselves in the mirror to see if they perceived a difference in conjunctival hyperemia between eyes. The drug was administered around 9:15 am. The assessments were made 5 minutes after the administration and 4 hours after the administration. After the four hours assessment, the drug was re-administered.

How the values of experiment [2] were obtained:
1 drop of 0.025% brimonidine was applied to the right eye of each patient. […] Then, the breathing function was measured in each nostril separately 10 minutes later. Then, 1 dose of 0.0045% brimonidine nasal spray was applied into the left nostril and the ease of breathing was again measured in each nostril separately 10 minutes later.

The conditions of experiment [3]: 0.025% brimonidine topically to one eye; 10 minutes; 11 individuals. As to the method:
11 individuals were asked to assess the patency of each nostril by alternately closing one. They were then given 0.025% brimonidine topically to one randomly selected eye. After 10 minutes each nostril was alternately closed to assess the patency of the contralateral nostril and compare to its patency before applying brimonidine to the eye. […] Nasal patency refers to a basic evaluation of the degree to which a nostril is open (i.e. unblocked).

Where two headings read alike, the source gives them in different places.

As for `Brc1c(NC2=NCCN2)ccc2nccnc12` [brimonidine], the “subjects reporting reduced hyperemia and increased whiteness in the treated eye” value in experiment [1] (5 min assessment) is “eight of eight”. In experiment [1] (four hour assessment), the “subjects reporting reduced hyperemia and increased whiteness in the treated eye” value is listed as “eight of eight”; the “subjects reporting reduced nasal congestion in the nostril on the same side as the treated eye” value is “six of eight”. Besides, in experiment [2] (1 drop of 0.025% brimonidine to the right eye), the “whiteness of the treated right eye” value is reported as “In all patients, the right eye has become whiter”. In experiment [2] (1 drop of 0.025% brimonidine to the right eye, 10 minutes later, three subjects with records), the “patients reporting reduced nasal congestion in the right nostril” value is reported as “all three patients reported reducing nasal congestion in the right nostril”. Further, in experiment [2] (after eye drop, 1 dose of 0.0045% brimonidine nasal spray into the left nostril, 10 minutes later, three subjects with records), the “patients reporting reduced nasal congestion in both nostrils” value is given as “all three patients reported reduced nasal congestion in the both nostrils”. In experiment [3], the “increase in patency in the contralateral nostril” value is given as “not in the contralateral” and the “patients with noticeable increase in patency in the ipsilateral nostril” value is given as 9 of the 11.
